Source: PubChem BioAssay (NCI)
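In this assay, cells in 96-well plates receive the compound at five concentrations for 48 hours. Endpoints are linearly interpolated between the surrounding concentrations. TGI: concentration producing complete growth inhibition.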

Experiments:
Experiment in all cases: inhibition of tumour cell growth, NCI panel, 48 h
[1] = tested on: M19-MEL melanoma
[2] = tested on: LXFL 529 NSCLC
[3] = tested on: SNB-78 CNS
[4] = tested on: DMS 273 small cell lung
[5] = tested on: RXF-631 renal
[6] = tested on: DLD-1 colon
[7] = tested on: HOP-18 NSCLC
[8] = tested on: XF 498 CNS
[9] = tested on: SN12K1 renal

| SMILES | TGI [1] [µM] | TGI [2] [µM] | TGI [3] [µM] | TGI [4] [µM] | TGI [5] [µM] | TGI [6] [µM] | TGI [7] [µM] | TGI [8] [µM] | TGI [9] [µM] |
| --- | --- | --- | --- | --- | --- | --- | --- | --- | --- |
| O=c1c2ccccc2n2nnc3ccc(NCCNCCO)c1c32 | 8.61 | 14.2 | 27.6 | 11.1 | 9.36 | 15.4 | 8.67 | 25.2 |  |
| COc1cc(CNc2nc3c(NC(C)=O)cc(C(F)(F)F)cc3nc2-c2ccccc2)cc(OC)c1OC | > 100 | > 100 |  | > 100 |  | > 100 |  | > 100 |  |
| Nc1ncnc2c1ncn2C1C(O)C=C(CO)C1O (stereo not given) | > 625 |  | > 625 | > 625 |  | > 625 | > 625 | < 0.0625 | > 625 |
